Each compound was assayed against T1, A2B adenosine receptor (Homo sapiens, UniProt P29275) (assay: [3H]NECA binding to A2B AR in neutrophil membranes (plus CPA and SCH58261)). Conditions: read-out: [^3H]NECA Ki; control neutrophil membranes; competition with 20 nmol/l [3H]NECA plus 50 nmol/l CPA and 100 nmol/l SCH58261; mean ± SEM of three experiments; Cheng and Prusoff.
T1 construct: Aliquots of neutrophil membranes (0.2–0.4 mg proteins) were incubated in a final volume of 250 μl T2 buffer; from tissue; host or cells: neutrophils from healthy volunteers and systemic sclerosis patients (membranes)
T1 sequence (P29275 1-332): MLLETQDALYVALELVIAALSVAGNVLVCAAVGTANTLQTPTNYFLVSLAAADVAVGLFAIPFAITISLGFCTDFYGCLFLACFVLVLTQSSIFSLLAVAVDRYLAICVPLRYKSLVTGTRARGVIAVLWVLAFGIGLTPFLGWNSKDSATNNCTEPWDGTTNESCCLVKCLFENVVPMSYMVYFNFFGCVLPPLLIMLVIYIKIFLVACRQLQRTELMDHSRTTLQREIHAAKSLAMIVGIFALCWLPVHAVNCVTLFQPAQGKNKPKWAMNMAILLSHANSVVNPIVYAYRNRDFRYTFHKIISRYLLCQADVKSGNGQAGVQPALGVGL
Experimental: For membrane preparation, cells were washed twice with 10 mmol/l Tris-HCl buffer, pH 7.4, containing 10 mmol/l MgCl2, in the presence of protease inhibitors (200 μg/ml bacitracine, 160 μg/ml benzamidine, 20 μg/ml trypsin inhibitor [T1]) and centrifuged at 48,000 g for 15 min at 4°C. Pellets were diluted in 20 volumes of T1 buffer, treated with ADA (2 IU/ml) for 60 min at 37°C to remove endogenous adenosine, and washed twice with 50 mmol/l Tris-HCl buffer, pH 7.4, containing 10 mmol/l MgCl2 (T2).
Aliquots of neutrophil membranes (0.2–0.4 mg proteins) were incubated in a final volume of 250 μl T2 buffer. […] After 90 min incubation at 0°C, the reaction was terminated either by vacuum filtration through Whatman GF/C glass fibre filters, accompanied by three washes with ice-cold T2 buffer (4 ml), or by centrifugation at 2900 g for 15 min at 4°C. A2B AR specificity was evaluated through competition experiments, using different AR ligands.

| SMILES | Ki [µM] |
| --- | --- |
| CCCn1c(=O)c2[nH]c(-c3ccc(OCC(=O)Nc4ccc(C(C)=O)cc4)cc3)nc2n(CCC)c1=O [MRS1706] | 0.005 ± 0.0003 |
| O=C(Cc1ccccc1)Nc1nc2ccc(Cl)cc2c2nc(-c3ccco3)nn12 [MRS1220] | > 10 |
| Nc1nc(Cl)nc2c1ncn2[C@@H]1O[C@H](CO)[C@@H](O)[C@H]1O [2 Cl-adenosine] | 0.954 ± 0.6 |

From paper PMC1065314, “A2B adenosine receptor activity is reduced in neutrophils from patients with systemic sclerosis” (Arthritis Research & Therapy, 2004)
